Assay results published in patent US8796267B2, “Oxazolidinone derivatives and methods of use” (Concert Pharmaceuticals, Inc., priority 2006, dated 2014).
Converted amounts (≈) assume the structure as drawn. Like-named read-outs stand apart in the source and are kept apart here.

How the values were obtained:
[1] = in words; cited from earlier work
[2] = tested on: mtDNA-encoded protein synthesis in HepG2 cells; assay: Mitochondria Toxicity Study (Complex IV/Frataxin ratio, dipstick); conditions: for IC50: Homo sapiens, HepG2; for mitochondria toxicity: in words, versus linezolid
[3] = tested on: Vancomycin-Resistant Enterococcus faecium; Staphylococcus aureus; Streptococcus pneumoniae; Streptococcus pyogenes; Streptococcus agalactiae infections; conditions: clinical trials, in words; cited from earlier work
[4] = cited from earlier work
H. influenzae = assay: MIC assay (broth microdilution); type: cell-based, Haemophilus influenzae; conditions: in words
Description: (§1) The three test compounds were stored at 4° C. until tested.
(§2) All test articles and drugs were dissolved in 50% dimethyl sulfoxide (DMSO) at one-half the volume needed to prepare the stock solution. Once the compound was in solution, the rest of the volume was added as sterile deionized water. The drug solutions were allowed to stand at room temperature for 1 hr to allow for auto-sterilization. Stock solutions were prepared at 40-fold the highest final test concentration in the test plate. The final concentration of DMSO in the assay was 2.5%.
(§3) The test organisms were obtained from clinical laboratories; quality control cultures were from the American Type Culture Collection. The test groups included Staphylococcus aureus, Staphylococcus epidermidis, Enterococcus faecalis, Enterococcus faecium, Streptococcus pneumoniae, Streptococcus pyogenes, Streptococcus agalactiae, Haemophilus influenzae, and Moraxella catarrhalis. Various phenotypic susceptibility/resistance groups were represented. Organisms received were streaked for isolation on agar medium appropriate to each organism. Colonies were picked by swab from the isolation plates and put into suspension in the appropriate media containing a cryoprotectant. The suspensions were aliquoted into cryogenic vials and maintained at −80° C. The isolates were thawed and passaged on the appropriate agar medium: Trypticase Soy agar (TSA) for most organisms, TSA plus 5% sheep blood for streptococci, and chocolate agar for Haemophilus. The plates were incubated overnight at 35° C. Haemophilus plates were incubated in the presence of CO2.
The medium employed for the MIC assay was Mueller Hinton II Broth (MHB II-Becton Dickinson, Sparks, Md. #212322, Lot #7143673) for most of the organisms. MHB II was supplemented with 2% lysed horse blood (Cleveland Scientific Lot #H93152) to accommodate the growth of Streptococcus pneumoniae. Haemophilus influenzae was tested in Haemophilus Test Medium. […]

[5] = humans; cited from earlier work
in vivo [6] = conditions: male, Sprague Dawley, rat, po, 5 mg/kg
Description: The combo dose was prepared by mixing both by 1:1 to yield a concentration of 5 mg/mL for each compound (pH ˜6) for intravenous and oral administration. The obtained solution was clear and colourless.
Male Sprague Dawley rats (body weight: 170 g to 220 g) were used in this study. Before the pharmacokinetic studies, animals were randomly assigned to the treatment groups.
The plasma samples and the dose formulation were stored at −20° C. until bioanalysis. Sample Analysis
Plasma samples (0.1 mL) were transferred to Eppendorff tube, then 20 μL methanol, and 300 μL IS solution (50 ng/mL) were added to it. After Vortexing for 1 min and centrifuging for 5 min at 15,000 rpm, 5 μL of supernatant was injected into LC/MS/MS.
The concentrations in plasma below the limit of quantitation (LOQ=5 ng/mL) were designated as zero. The pharmacokinetic data analysis was performed using noncompartmental analysis modules in WinNonlin2.0.

[7] = tested on: Cyp isoforms (1A2; 2C9; 2C19; 2D6; 2E1; 3A4); conditions: cited from earlier work
[8] = tested on: methicillin-sensitive S. epidermidis (MSSE); assay: MIC assay (broth microdilution); type: cell-based; conditions: Staphylococcus epidermidis; clinical isolates
Description: as §1, §2, §3
(§4) The medium employed for the MIC assay was Mueller Hinton II Broth (MHB II-Becton Dickinson, Sparks, Md. #212322, Lot #7143673) for most of the organisms. MHB II was supplemented with 2% lysed horse blood (Cleveland Scientific Lot #H93152) to accommodate the growth of Streptococcus pneumoniae. Haemophilus influenzae was tested in Haemophilus Test Medium. On the day of the test, the medium to be used in the daptomycin row of the daughters was supplemented with calcium ions to the final concentration of 50 μg/mL, taking into account the calcium that was already present in the medium.
(§5) The MIC assay method followed the procedure described by the Clinical and Laboratory Standards Institute and employed automated liquid handlers to conduct serial dilutions and liquid transfers. Automated liquid handlers included the Multidrop 384, Labsystems, Helsinki, Finland; Biomek 2000 and Multimek 96, Beckman Coulter, Fullerton Calif. The wells of standard 96-well microdilution plates (Falcon 3918) were filled with 150 μL of DMSO:deionized H2O (1:1) on the Multidrop 384. The drugs were dispensed into Column 1 of a deep well plate. The Biomek 2000 transferred 150 μL of each drug into one well in Column 1 of a “mother plate” and completed serial transfers through Column 11 in the mother plates. The wells of Column 12 contained no drug and were the organism growth control wells.
(§6) The daughter plates were loaded with 85 μL of the appropriate test media described above using the Multidrop 384. The daughter plates were prepared on the Multimek 96 instrument which transferred 5 μL of drug solution from each well of a mother plate to each corresponding well of each daughter plate in a single step.
(§7) Standardized inoculum of each organism was prepared per CLSI methods (Clinical and Laboratory Standards Institute. Methods for Dilution Antimicrobial Susceptibility Tests for Bacteria That Grow Aerobically; Approved Standard—Seventh Edition. Clinical and Laboratory Standards Institute document M7-A7 [ISBN 1-56238-587-9]. Clinical and Laboratory Standards Institute, 940 West Valley Road, Suite 1400, Wayne, Pa. 19087-1898 USA, 2006). Suspensions were prepared in MHB to equal a 0.5 McFarland standard. The suspensions were diluted 1:19 in broth appropriate to the organism. […]

[9] = tested on: vancomycin-resistant E. faecalis; assay: MIC assay (broth microdilution); type: cell-based; conditions: Enterococcus faecalis; clinical isolates
Description: as §1, §2, §3, §4, §5, §6, §7

[10] = tested on: penicillin-intermediate S. pneumoniae; assay: MIC assay (broth microdilution); type: cell-based; conditions: Streptococcus pneumoniae; 27 isolates
Description: as §1, §2, §3, §4, §5, §6, §7

[11] = tested on: vancomycin-sensitive E. faecium; assay: MIC assay (broth microdilution); type: cell-based; conditions: Enterococcus faecium; printed only as 'a value'
Description: as §1, §2, §3, §4, §5, §6, §7

S. agalactiae = assay: MIC assay (broth microdilution); type: cell-based; conditions: Streptococcus agalactiae
Description: as §1, §2, §3, §4, §5, §6, §7

M. catarrhalis = assay: MIC assay (broth microdilution); type: cell-based; conditions: Moraxella catarrhalis; 30 isolates
Description: as §1, §2, §3, §4, §5, §6, §7

[12] = tested on: methicillin-resistant S. aureus (MRSA); assay: MIC assay (broth microdilution); type: cell-based; conditions: Staphylococcus aureus, clinical isolates
Description: as §1, §2, §3, §4, §5, §6, §7

community-acquired MRSA = assay: MIC assay (broth microdilution); type: cell-based; conditions: Staphylococcus aureus, clinical isolates
Description: as §1, §2, §3, §4, §5, §6, §7

S. pyogenes = assay: MIC assay (broth microdilution); type: cell-based; conditions: Streptococcus pyogenes; read-out: potency (MIC90)
Description: as §1, §2, §3, §4, §5, §6, §7

[13] = tested on: vancomycin-resistant E. faecium; assay: MIC assay (broth microdilution); type: cell-based; conditions: Enterococcus faecium; clinical isolates
Description: as §1, §2, §3, §4, §5, §6, §7

[14] = tested on: methicillin-resistant S. epidermidis (MRSE); assay: MIC assay (broth microdilution); type: cell-based; conditions: Staphylococcus epidermidis, clinical isolates
Description: as §1, §2, §3, §4, §5, §6, §7

[15] = tested on: methicillinsensitive S. aureus (MSSA); assay: MIC assay (broth microdilution); type: cell-based; conditions: Staphylococcus aureus, clinical isolates
Description: as §1, §2, §3, §4, §5, §6, §7

[16] = tested on: penicillin-sensitive S. pneumoniae; assay: MIC assay (broth microdilution); type: cell-based; conditions: Streptococcus pneumoniae; 27 isolates
Description: as §1, §2, §3, §4, §5, §6, §7

[17] = tested on: vancomycin-sensitive E. faecalis; assay: MIC assay (broth microdilution); type: cell-based; conditions: Enterococcus faecalis; clinical isolates
Description: as §1, §2, §3, §4, §5, §6, §7

[18] = tested on: penicillin-resistant S. pneumoniae; assay: MIC assay (broth microdilution); type: cell-based; conditions: Streptococcus pneumoniae; 28 isolates
Description: as §1, §2, §3, §4, §5, §6, §7

in vivo [19] = conditions: 150 mg; for AUC(0-t): both, chimpanzee, po; for half-life: iv
Description: The dosing solution is then filtered through a 0.22 μm filter prior to dosing.
(§8) Four chimpanzees (two male and two female) were used in the study. One male and one female were used for the intravenous study and one male and one female were used for the oral dosing study. All animals were fasted overnight prior to dosing. For all studies animals were sedated with ketamine (approx. 10 mg/ml) or telazol (approx. 5 mg/ml) prior to dosing. […] Intravenous doses were administered (150 ml at 2 mg/ml combined drugs) by infusion over a 30 minute period. Oral doses were administered in a volume of 150 ml at 2 mg/ml combined drugs.
(§9) For the intravenous study, a 4.5 ml aliquot of blood was taken from each animal prior to the start of infusion, 15 minutes after the start of infusion, and immediately before the end of infusion. Additional samples were taken at 6, 15, 30, and 60 minutes and 1.5, 2, 4, 6, 8 and 24 hours following infusion. For the oral study, 4.5 ml aliquots of blood were taken from each animal prior to doing and then at 15, 20 and 60 minutes and 1.5, 2, 4, 6, 8 and 24 hours post dosing. All blood samples were collected into vacutainer tubes containing sodium heparin as an anticoagulant, sufficiently mixed and stored on wet ice. The samples were centrifuged within 1 hour of collection and the plasma collected and frozen at −70° C. until analysis. Urine was also collected from each animal over a 24 hour period following dosing.
Chimp plasma sample (100 μL) was mixed with 300 μL internal standard solution prior to LC-MS/MS analysis. The internal standard was 250 ng/mL haloperidol in acetonitrile/water (90/10, v/v). After protein precipitation, 10 L supernatant was injected to a Zorbax SB-C8 (Rapid Resolution) column (2.1×30 mm, 3.5 μm). The initial mobile phase condition was 100% A (water with 0.1% formic acid) and 0% B (acetonitrile with 0.1% formic acid) with a flow rate at 0.5 mL/min. Mobile phase B was allowed to reach 90% within 2 minutes and held for 1 minute before ramping back 0% at 3.2 minutes. The overall run time was six minutes.

[20] = in words
Description: as §8, §9
Urine samples were similarly analyzed. […]

[21] = tested on: antibiotic resistant Grampositive pathogens including MRSA, VRE, and PRSP; assay: In vitro antibacterial activity, overall conclusion; type: cell-based; conditions: in words
Description: as §1, §2
as §3, with “The isolates were thawed and passaged on the appropriate agar medium: Trypticase Soy agar (TSA) for most organisms, TSA plus 5% sheep blood for streptococci, and chocolate agar for Haemophilus. The plates were incubated overnight at 35° C. Haemophilus plates were incubated in the presence of CO2.” left out

Structure (SMILES) | activity of metabolite [1] | IC50 [2] [µM] | mitochondria toxicity [2] | activity (H. influenzae) | MIC90 [8] [µg/mL] | MIC90 [9] [µg/mL] | MIC90 [10] [µg/mL] | MIC90 [11] [µg/mL] | MIC90 (S. agalactiae) [µg/mL] | MIC90 (M. catarrhalis) [µg/mL] | MIC90 [12] [µg/mL] | MIC90 (community-acquired MRSA) [µg/mL] | MIC90 (S. pyogenes) [µg/mL] | MIC90 [13] [µg/mL] | MIC90 [14] [µg/mL] | MIC90 [15] [µg/mL] | MIC90 [16] [µg/mL] | MIC90 [17] [µg/mL] | MIC90 [18] [µg/mL] | AUC(0-t) (in vivo [19]) [ng·h/mL] | other results
CC(=O)NCC1CN(c2ccc(N(CCO)CC(=O)O)c(F)c2)C(=O)O1 (stereo not shown) [Compound M4] | inactive | – | – | – | – | – | – | – | – | – | – | – | – | – | – | – | – | – | – | – | –
[2H]C1([2H])CN(c2ccc(N3C[C@H](CNC(C)=O)OC3=O)cc2F)CC([2H])([2H])O1 [Compound 103, (S)—N-((3-(3-fluoro-4-(4-morpholino-2,2,6,6-d4)-phenyl)-2-oxooxazolidin-5-yl)methyl)acetamide] | – | 9.7 | comparable to that of linezolid | – | – | – | – | – | – | – | – | – | – | – | – | – | – | – | – | – | –
CC(=O)NC[C@H]1CN(c2ccc(N3CCOCC3)c(F)c2)C(=O)O1 [Linezolid, (S)—N-[[3-[3-Fluoro-4-(4-morpholinyl)phenyl]-2-oxo-5-oxazolidinyl]methyl]-acetamide, reference compound] | – | 7.8 | – | poor activity | 2 (≈ 5.93 µM) | 2 (≈ 5.93 µM) | 2 (≈ 5.93 µM) | 2 (≈ 5.93 µM) | 2 (≈ 5.93 µM) | 8 (≈ 23.7 µM) | 4 (≈ 11.9 µM) | 2 (≈ 5.93 µM) | 1 (≈ 2.96 µM) | 2 (≈ 5.93 µM) | 2 (≈ 5.93 µM) | 4 (≈ 11.9 µM) | 2 (≈ 5.93 µM) | 2 (≈ 5.93 µM) | 2 (≈ 5.93 µM) | 11300 | efficacy in treatment of infections [3]: effective; tolerability ([4]; 725 mg three times a day, increase in serum creatinine): could not be tolerated; myelosuppression ([4]; patients receiving linezolid, reversible): Myelosuppression has been reported; administered dose found in the urine as the parent compound [5]: Approximately 35%; dose accounted for as the two metabolites (M4, M6) [5]: 50%; Tmax (in vivo [6]): 0.83 ± 1.01 h; Cyp substrate, inhibitor or inducer [7]: not a substrate, inhibitor, or inducer; half-life (in vivo [19]; female): 4.5 h; half-life (in vivo [19]; male): 4.5 h
CC(=O)NCC1CN(c2ccc(NCCOCC(=O)O)c(F)c2)C(=O)O1 (stereo not shown) [Compound M6] | inactive | – | – | – | – | – | – | – | – | – | – | – | – | – | – | – | – | – | – | – | –
[2H]C([2H])(NC(C)=O)[C@H]1CN(c2ccc(N3C([2H])([2H])C([2H])([2H])OC([2H])([2H])C3([2H])[2H])c(F)c2)C(=O)O1 [Compound 100] | – | 9.3 | comparable to that of linezolid | poor activity | – | – | – | – | – | – | – | 2 (≈ 5.76 µM) | 1 (≈ 2.88 µM) | – | – | 4 (≈ 11.5 µM) | – | – | – | 16400 | rate of metabolism versus linezolid (chimpanzee studies, in words): more slowly metabolized than linezolid; amount of deuterated M6 metabolite versus linezolid M6 metabolite ([20]; chimpanzee urine): essentially the same; amount excreted intact in the urine versus linezolid ([20]; chimpanzee, regardless of route or sex): approximately twice as much; half-life (in vivo [19]; female): 6.4 h; half-life (in vivo [19]; male): 6.2 h; activity against antibiotic resistant Grampositive pathogens [21]: good activity
[2H]C1([2H])OC([2H])([2H])C([2H])([2H])N(c2ccc(N3C[C@H](CNC(C)=O)OC3=O)cc2F)C1([2H])[2H] [Compound 101] | – | 10.5 | comparable to that of linezolid | poor activity | 2 (≈ 5.79 µM) | 2 (≈ 5.79 µM) | 2 (≈ 5.79 µM) | 2 (≈ 5.79 µM) | 2 (≈ 5.79 µM) | 4 (≈ 11.6 µM) | 4 (≈ 11.6 µM) | 2 (≈ 5.79 µM) | 1 (≈ 2.9 µM) | 2 (≈ 5.79 µM) | 2 (≈ 5.79 µM) | 4 (≈ 11.6 µM) | 2 (≈ 5.79 µM) | 2 (≈ 5.79 µM) | 2 (≈ 5.79 µM) | – | % increase in AUC (both, chimpanzee, in vivo, iv): 31%; % increase in Half-life (both, chimpanzee, in vivo, iv): 30%; % increase in AUC (both, chimpanzee, in vivo, po): 41%; % increase in Cmax (both, chimpanzee, in vivo, po): 22%; activity against antibiotic resistant Grampositive pathogens [21]: good activity
